Source: patent US20230227427A1, “IL-17A MODULATORS” (SANOFI, priority 2010, published 2023)
Read-outs that look alike come from different tables or passages of the source.

Biological target: T1, human recombinant IL-17A (Homo sapiens, UniProt Q16552)
T1 construct: purchased R&D Systems 7955-IL/CF
T1 sequence (Q16552 24-155): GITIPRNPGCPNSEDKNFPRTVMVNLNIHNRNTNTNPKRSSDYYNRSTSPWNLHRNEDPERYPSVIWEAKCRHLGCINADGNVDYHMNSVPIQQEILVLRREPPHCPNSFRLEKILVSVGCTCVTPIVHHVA
Experiment: IL-17A AlphaLISA assay (block binding of IL-17A to its receptor IL-17RA)
Details: read-out: AlphaLISA pIC50 (converted)
Method in brief: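 Compounds pre-incubated 24 h at RT (30 min where flagged) with human IL-17A (7.5 nM stock) before IL-17RA/Fc (5 nM stock), 90 min. Read by AlphaLISA via anti-Fc acceptor and biotin anti-IL-17A/streptavidin donor beads, 680/615 nm. 4-parameter fit; DMSO and 6 μM reference inhibitor as controls; pIC50.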

[1] = compounds pre-incubated with the IL-17A for 24 h at room temperature
[2] = compounds pre-incubated with the IL-17A for 30 min (indicated by * in Table A)

SMILES | IC50 [1] [µM] | IC50 [2] [µM]
Cc1noc(C)c1-c1ccc(NC(=O)[C@@H](NC(=O)c2ccnn2C(C)C)C2CCCCC2)nc1 [Example 108, (S)—N-(1-Cyclohexyl-2-((5-(3,5-dimethylisoxazol-4-yl)pyridin-2-yl)amino)-2-oxoethyl)-1-isopropyl-1H-pyrazole-5-carboxamide] |  | 0.126
Cc1cnn(C)c1-c1ccc(NC(=O)C(NC(=O)c2ccnn2C)C2CCCCCCC2)nc1 (stereo not shown) [Example 113, N-(1-Cyclooctyl-2-((5-(1,4-dimethyl-1H-pyrazol-5-yl)pyridin-2-yl)amino)-2-oxoethyl)-1-methyl-1H-pyrazole-5-carboxamide] |  | 0.158
Cc1nsc(C)c1-c1ccc(NC(=O)[C@@H](NC(=O)c2ccnn2C)[C@H]2CC[C@H](C)CC2)nc1 [Example 196, N—((S)-2-((5-(3,5-dimethylisothiazol-4-yl)pyridin-2-yl)amino)-1-((1r,4S)-4-methylcyclohexyl)-2-oxoethyl)-1-methyl-1H-pyrazole-5-carboxamide] |  | 0.251
Cc1n[nH]c(C)c1-c1ccc(NC(=O)[C@@H](NC(=O)c2ccnn2C)C2CCCCCC2)cn1 [Example 218, (S)—N-(1-cycloheptyl-2-((6-(3,5-dimethyl-1H-pyrazol-4-yl)pyridin-3-yl)amino)-2-oxoethyl)-1-methyl-1H-pyrazole-5-carboxamide] |  | 0.158
Cc1nocc1C(=O)N[C@H](C(=O)Nc1ccc(-c2c(C)noc2C)nc1)C1CCCCCC1 [Example 170, (S)—N-(1-cycloheptyl-2-((6-(3,5-dimethylisoxazol-4-yl)pyridin-3-yl)amino)-2-oxoethyl)-3-methylisoxazole-4-carboxamide] |  | 0.158
CCc1nocc1C(=O)N[C@H](C(=O)Nc1ccc(-c2c(C)noc2C)cn1)C1CCCCC1 [Example 114, (S)—N-(1-Cyclohexyl-2-((5-(3,5-dimethylisoxazol-4-yl)pyridin-2-yl)amino)-2-oxoethyl)-3-ethylisoxazole-4-carboxamide] |  | 0.158
Cc1cnn(C)c1-c1ccc(NC(=O)C(NC(=O)c2ccnn2C)C2C3(CC3)CCC23CC3)nc1 (stereo not shown) [Example 220, N-(2-((5-(1,4-dimethyl-1H-pyrazol-5-yl)pyridin-2-yl)amino)-1-(dispiro[2.1.2^5.2^3]nonan-4-yl)-2-oxoethyl)-1-methyl-1H-pyrazole-5-carboxamide] |  | 0.0316
COc1cnccc1-c1ccc(NC(=O)[C@@H](NC(=O)c2ccnn2C)C(c2ccc(F)cc2)c2ccc(F)cc2)cc1 [Example 19, (S)—N-(1,1-bis(4-fluorophenyl)-3-((4-(3-methoxypyridin-4-yl)phenyl)amino)-3-oxopropan-2-yl)-1-methyl-1H-pyrazole-5-carboxamide] | 0.0631 | 
Cc1cnn(C)c1-c1ccc(NC(=O)C(NC(=O)c2ccnn2C)C2CC3CCC2C3)nc1 (stereo not shown) [Example 184, N-(1-(bicyclo[2.2.1]heptan-2-yl)-2-((5-(1,4-dimethyl-1H-pyrazol-5-yl)pyridin-2-yl)amino)-2-oxoethyl)-1-methyl-1H-pyrazole-5-carboxamide] |  | 0.251
Cc1nonc1C(=O)N[C@H](C(=O)Nc1ccc(-c2c(C)noc2C)cn1)C1CCCCCC1 [Example 128, (S)—N-(1-Cycloheptyl-2-((5-(3,5-dimethylisoxazol-4-yl)pyridin-2-yl)amino)-2-oxoethyl)-4-methyl-1,2,5-oxadiazole-3-carboxamide] |  | 0.251
Cn1nccc1C(=O)N[C@H](C(=O)Nc1ccc(-c2c(O)cnn2C)cn1)C1CCCCCC1 [Example 166, (S)—N-(1-cycloheptyl-2-((5-(4-hydroxy-1-methyl-1H-pyrazol-5-yl)pyridin-2-yl)amino)-2-oxoethyl)-1-methyl-1H-pyrazole-5-carboxamide] |  | 0.631
Cc1cc(=O)n(C)c(C)c1-c1ccc(NC(=O)[C@@H](NC(=O)c2ccnn2C)C2CCCCCC2)nc1 [Example 214, (S)—N-(1-cycloheptyl-2-oxo-2-((1′,2′,4′-trimethyl-6′-oxo-1′,6′-dihydro-[3,3′-bipyridin]-6-yl)amino)ethyl)-1-methyl-1H-pyrazole-5-carboxamide] |  | 0.158
Cc1cnn(C)c1-c1ccc(NC(=O)[C@@H](NC(=O)c2cnnn2C)[C@H]2CC[C@H](C)CC2)nc1 [Example 167, N—((S)-2-((5-(1,4-dimethyl-1H-pyrazol-5-yl)pyridin-2-yl)amino)-1-((1r,4S)-4-methylcyclohexyl)-2-oxoethyl)-1-methyl-1H-1,2,3-triazole-5-carboxamide] |  | 0.316
CCn1nccc1C(=O)N[C@H](C(=O)Nc1ccc(-c2c(C)cnn2C)nc1)[C@H]1CC[C@H](C)CC1 [Example 154, N—((S)-2-((6-(1,4-dimethyl-1H-pyrazol-5-yl)pyridin-3-yl)amino)-1-((1r,4S)-4-methylcyclohexyl)-2-oxoethyl)-1-ethyl-1H-pyrazole-5-carboxamide] |  | 0.251

Second part, the compound after the results:

IC50 [1] [µM] | IC50 [2] [µM] | SMILES
0.316 |  | Cn1nccc1C(=O)N[C@H](C(=O)Nc1ccc(-c2cn[nH]c(=O)c2)c(F)c1)C(c1ccccc1)c1ccccc1 [Example 70, (S)—N-(1-((3-fluoro-4-(6-oxo-1,6-dihydropyridazin-4-yl)phenyl)amino)-1-oxo-3,3-diphenylpropan-2-yl)-1-methyl-1H-pyrazole-5-carboxamide]
0.398 |  | Cn1nccc1C(=O)N[C@H](C(=O)Nc1ccc(-c2cnc(=O)[nH]c2)c(F)c1)C(c1ccccc1)c1ccccc1 [Example 64, (S)—N-(1-((3-fluoro-4-(2-oxo-1,2-dihydropyrimidin-5-yl)phenyl)amino)-1-oxo-3,3-diphenylpropan-2-yl)-1-methyl-1H-pyrazole-5-carboxamide]
0.0316 |  | Cc1[nH]ncc1-c1ccc(NC(=O)[C@@H](NC(=O)c2ccnn2C)C(c2ccccc2)c2ccccc2)cc1 [Example 74, (S)-1-methyl-N-(1-((4-(5-methyl-1H-pyrazol-4-yl)phenyl)amino)-1-oxo-3,3-diphenylpropan-2-yl)-1H-pyrazole-5-carboxamide]
0.316 |  | Cn1nccc1C(=O)N[C@H](C(=O)Nc1ccc(-c2cc(=O)[nH]cn2)c(F)c1)C(c1ccccc1)c1ccccc1 [Example 80, (S)—N-(1-((3-fluoro-4-(6-oxo-1,6-dihydropyrimidin-4-yl)phenyl)amino)-1-oxo-3,3-diphenylpropan-2-yl)-1-methyl-1H-pyrazole-5-carboxamide]
0.0316 |  | COc1cnccc1-c1ccc(NC(=O)[C@@H](NC(=O)c2ccnn2C)C(c2ccccc2)c2ccccc2)cc1C [Example 20, (S)—N-(1-((4-(3-methoxypyridin-4-yl)-3-methylphenyl)amino)-1-oxo-3,3-diphenylpropan-2-yl)-1-methyl-1H-pyrazole-5-carboxamide]
0.251 |  | COc1cc(NC(=O)[C@@H](NC(=O)c2ccnn2C)C(c2ccccc2)c2ccccc2)ccc1-c1ccncc1CO [Example 53, (S)—N-(1-((4-(3-(hydroxymethyl)pyridin-4-yl)-3-methoxyphenyl)amino)-1-oxo-3,3-diphenylpropan-2-yl)-1-methyl-1H-pyrazole-5-carboxamide]
0.0316 |  | COc1cncc(F)c1-c1ccc(NC(=O)[C@@H](NC(=O)c2ccnn2C)C(c2ccccc2)c2ccccc2)cc1F [Example 18, N-((2S)-1-((3-fluoro-4-(3-fluoro-5-methoxypyridin-4-yl)phenyl)amino)-1-oxo-3,3-diphenylpropan-2-yl)-1-methyl-1H-pyrazole-5-carboxamide]
0.0158 |  | Cc1cc(=O)n(C)cc1-c1ccc(NC(=O)[C@@H](NC(=O)c2ccnn2C)C(c2ccccc2)c2ccccc2)cc1F [Example 17, (S)—N-(1-((4-(1,4-dimethyl-6-oxo-1,6-dihydropyridin-3-yl)-3-fluorophenyl)amino)-1-oxo-3,3-diphenylpropan-2-yl)-1-methyl-1H-pyrazole-5-carboxamide]
0.1 |  | Cc1cncc(C)c1-c1ccc(NC(=O)[C@@H](NC(=O)c2ccnn2C)C(c2ccccc2)c2ccccc2)cc1Cl [Example 55, (S)—N-(1-((3-chloro-4-(3,5-dimethylpyridin-4-yl)phenyl)amino)-1-oxo-3,3-diphenylpropan-2-yl)-1-methyl-1H-pyrazole-5-carboxamide]
0.0158 |  | Cc1[nH]c(=O)ccc1-c1ccc(NC(=O)[C@@H](NC(=O)c2ccnn2C)C(c2ccccc2)c2ccccc2)cc1 [Example 11, (S)-1-methyl-N-(1-((4-(2-methyl-6-oxo-1,6-dihydropyridin-3-yl)phenyl)amino)-1-oxo-3,3-diphenylpropan-2-yl)-1H-pyrazole-5-carboxamide]
0.0126 |  | COc1cnccc1-c1ccc(NC(=O)[C@@H](NC(=O)c2ccnn2C)C(c2ccccc2)c2ccccc2)cc1 [Example 3, (S)—N-(1-((4-(3-methoxypyridin-4-yl)phenyl)amino)-1-oxo-3,3-diphenylpropan-2-yl)-1-methyl-1H-pyrazole-5-carboxamide]
0.00794 |  | COc1c[n+]([O-])cc(F)c1-c1ccc(NC(=O)[C@@H](NC(=O)c2ccnn2C)C(c2ccccc2)c2ccccc2)cc1 [Example 28, (S)-3-fluoro-5-methoxy-4-(4-(2-(1-methyl-1H-pyrazole-5-carboxamido)-3,3-diphenylpropanamido)phenyl)pyridine 1-oxide]
0.0398 |  | COc1cnccc1-c1ccc(NC(=O)[C@@H](NC(=O)c2ccnn2C)C(c2ccccc2)c2ccccc2)c(F)c1 [Example 23, (S)—N-(1-((2-fluoro-4-(3-methoxypyridin-4-yl)phenyl)amino)-1-oxo-3,3-diphenylpropan-2-yl)-1-methyl-1H-pyrazole-5-carboxamide]
0.00794 |  | COc1cncc(F)c1-c1ccc(NC(=O)[C@@H](NC(=O)c2ccnn2C)C(c2ccccc2)c2ccccc2)cc1 [Example 10, (S)—N-(1-((4-(3-fluoro-5-methoxypyridin-4-yl)phenyl)amino)-1-oxo-3,3-diphenylpropan-2-yl)-1-methyl-1H-pyrazole-5-carboxamide]
